Experiments:
[1] = biological target: OTU domain-containing protein 1 (Homo sapiens, UniProt Q5VV17); assay: Inhibition of human 6His-tagged OTUD1 CD (270 to 481 residues) expressed in Escherichia coli assessed as cleavage of Ubiquitin-Rhodamine110-glycine to Ubiquitin and Rhodamine110-glycine using Ubiquitin-Rhodamine110-glycine as substrate by fluorescence based analysis
[2] = Cytotoxicity against human RKO cells assessed as reduction in cellular ATP level measured after 5 days by CellTiter-Glo assay; type: cell-based
[3] = biological target: OTU domain-containing protein 3 (Homo sapiens, UniProt Q5T2D3); assay: Inhibition of human GST-tagged OTUD3 expressed in Escherichia coli assessed as cleavage of Ubiquitin-Rhodamine110-glycine to Ubiquitin and Rhodamine110-glycine using Ubiquitin-Rhodamine110-glycine as substrate by fluorescence based analysis
[4] = biological target: Ubiquitin carboxyl-terminal hydrolase 8 (Homo sapiens, UniProt P40818); assay: Inhibition of human USP8 expressed in Escherichia coli assessed as cleavage of Ubiquitin-Rhodamine110-glycine to Ubiquitin and Rhodamine110-glycine using Ubiquitin-Rhodamine110-glycine as substrate by fluorescence based analysis
[5] = biological target: Ubiquitin carboxyl-terminal hydrolase 16 (Homo sapiens, UniProt Q9Y5T5); assay: Inhibition of USP16 (unknown origin)
[6] = biological target: T1, Ubiquitin carboxyl-terminal hydrolase 1 (Homo sapiens, UniProt O94782); assay: Inhibition of His6-tagged human USP1 expressed in insect Sf21 cells coexpressing untagged UAF1 assessed as cleavage of Ubiquitin-Rhodamine110-glycine to Ubiquitin and Rhodamine110-glycine using Ubiquitin-Rhodamine110-glycine as substrate by fluorescence based analysis
T1 sequence (O94782 whole entry): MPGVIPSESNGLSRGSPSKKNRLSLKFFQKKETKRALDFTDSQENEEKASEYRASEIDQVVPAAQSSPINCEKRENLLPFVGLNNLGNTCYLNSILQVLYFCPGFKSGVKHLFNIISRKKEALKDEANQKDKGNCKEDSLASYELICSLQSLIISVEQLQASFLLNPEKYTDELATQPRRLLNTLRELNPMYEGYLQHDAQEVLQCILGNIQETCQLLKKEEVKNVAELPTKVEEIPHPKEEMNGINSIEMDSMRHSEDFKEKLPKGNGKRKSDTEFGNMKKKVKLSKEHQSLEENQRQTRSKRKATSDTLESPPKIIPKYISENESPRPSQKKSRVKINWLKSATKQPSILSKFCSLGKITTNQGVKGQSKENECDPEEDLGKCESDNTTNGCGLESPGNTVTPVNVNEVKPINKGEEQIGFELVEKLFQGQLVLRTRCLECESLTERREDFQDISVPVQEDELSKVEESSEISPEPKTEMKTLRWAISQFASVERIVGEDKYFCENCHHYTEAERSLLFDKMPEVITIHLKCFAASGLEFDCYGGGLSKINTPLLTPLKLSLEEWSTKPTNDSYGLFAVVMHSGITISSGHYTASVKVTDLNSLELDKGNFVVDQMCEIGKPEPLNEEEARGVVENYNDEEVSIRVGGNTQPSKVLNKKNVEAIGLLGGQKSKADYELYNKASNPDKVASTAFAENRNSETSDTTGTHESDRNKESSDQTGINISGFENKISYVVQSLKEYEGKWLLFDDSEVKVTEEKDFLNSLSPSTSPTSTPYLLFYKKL

[7] = biological target: Ubiquitin carboxyl-terminal hydrolase 30 (Homo sapiens, UniProt Q70CQ3); assay: Inhibition of human USP30 CD (57 to 517 residues) expressed in Escherichia coli assessed as cleavage of Ubiquitin-Rhodamine110-glycine to Ubiquitin and Rhodamine110-glycine using Ubiquitin-Rhodamine110-glycine as substrate by fluorescence based analysis
[8] = Clearance in Sprague-Dawley rat at 0.5 mg/kg, iv; type: ADME, organism-based; settings: in vivo
[9] = biological target: Deubiquitinating protein VCPIP1 (Homo sapiens, UniProt Q96JH7); assay: Inhibition of human GST-tagged VCPIP CD (25 to 561 residues) expressed in Escherichia coli assessed as cleavage of Ubiquitin-Rhodamine110-glycine to Ubiquitin and Rhodamine110-glycine using Ubiquitin-Rhodamine110-glycine as substrate by fluorescence based analysis
[10] = biological target: T2, Ubiquitin carboxyl-terminal hydrolase 47 (Homo sapiens, UniProt Q96K76); assay: Inhibition of USP47 (unknown origin) by biochemical assay
T2 sequence (Q96K76 whole entry): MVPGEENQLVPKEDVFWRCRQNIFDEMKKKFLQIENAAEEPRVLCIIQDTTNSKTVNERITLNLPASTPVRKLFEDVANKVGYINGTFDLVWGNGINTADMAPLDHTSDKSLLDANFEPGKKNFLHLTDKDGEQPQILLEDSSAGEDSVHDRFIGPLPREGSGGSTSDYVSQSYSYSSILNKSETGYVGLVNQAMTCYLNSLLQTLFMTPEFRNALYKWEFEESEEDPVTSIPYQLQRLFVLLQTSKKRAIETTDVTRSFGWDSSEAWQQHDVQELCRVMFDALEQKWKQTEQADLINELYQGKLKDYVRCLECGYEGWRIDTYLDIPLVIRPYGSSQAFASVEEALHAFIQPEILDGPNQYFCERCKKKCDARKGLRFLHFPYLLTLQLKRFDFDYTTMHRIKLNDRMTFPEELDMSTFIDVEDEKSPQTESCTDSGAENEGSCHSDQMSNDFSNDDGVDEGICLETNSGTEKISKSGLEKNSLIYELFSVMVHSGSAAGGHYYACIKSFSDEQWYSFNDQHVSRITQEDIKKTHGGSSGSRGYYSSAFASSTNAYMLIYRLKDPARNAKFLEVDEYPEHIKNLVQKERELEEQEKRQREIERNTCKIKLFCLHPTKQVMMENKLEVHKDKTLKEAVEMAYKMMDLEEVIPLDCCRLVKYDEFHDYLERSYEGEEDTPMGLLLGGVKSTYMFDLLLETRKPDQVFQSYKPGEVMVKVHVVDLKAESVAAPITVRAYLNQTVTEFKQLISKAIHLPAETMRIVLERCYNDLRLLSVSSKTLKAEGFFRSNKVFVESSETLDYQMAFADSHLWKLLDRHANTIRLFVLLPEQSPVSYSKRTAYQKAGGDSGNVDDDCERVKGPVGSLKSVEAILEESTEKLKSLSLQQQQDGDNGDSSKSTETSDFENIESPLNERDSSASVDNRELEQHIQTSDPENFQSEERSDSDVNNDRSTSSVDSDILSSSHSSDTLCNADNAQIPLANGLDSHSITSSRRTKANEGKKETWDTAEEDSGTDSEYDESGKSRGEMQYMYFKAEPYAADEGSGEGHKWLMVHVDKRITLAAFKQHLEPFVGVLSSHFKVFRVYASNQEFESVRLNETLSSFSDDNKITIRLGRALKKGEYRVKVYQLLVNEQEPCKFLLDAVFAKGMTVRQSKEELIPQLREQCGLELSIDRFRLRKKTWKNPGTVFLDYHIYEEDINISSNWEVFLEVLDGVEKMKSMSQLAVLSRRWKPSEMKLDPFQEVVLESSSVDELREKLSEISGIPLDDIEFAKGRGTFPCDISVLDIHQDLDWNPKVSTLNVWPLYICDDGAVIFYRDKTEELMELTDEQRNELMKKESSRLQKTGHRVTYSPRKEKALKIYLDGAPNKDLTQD

Chain of Ubiquitin carboxyl-terminal hydrolase 16 (Q9Y5T5 whole entry): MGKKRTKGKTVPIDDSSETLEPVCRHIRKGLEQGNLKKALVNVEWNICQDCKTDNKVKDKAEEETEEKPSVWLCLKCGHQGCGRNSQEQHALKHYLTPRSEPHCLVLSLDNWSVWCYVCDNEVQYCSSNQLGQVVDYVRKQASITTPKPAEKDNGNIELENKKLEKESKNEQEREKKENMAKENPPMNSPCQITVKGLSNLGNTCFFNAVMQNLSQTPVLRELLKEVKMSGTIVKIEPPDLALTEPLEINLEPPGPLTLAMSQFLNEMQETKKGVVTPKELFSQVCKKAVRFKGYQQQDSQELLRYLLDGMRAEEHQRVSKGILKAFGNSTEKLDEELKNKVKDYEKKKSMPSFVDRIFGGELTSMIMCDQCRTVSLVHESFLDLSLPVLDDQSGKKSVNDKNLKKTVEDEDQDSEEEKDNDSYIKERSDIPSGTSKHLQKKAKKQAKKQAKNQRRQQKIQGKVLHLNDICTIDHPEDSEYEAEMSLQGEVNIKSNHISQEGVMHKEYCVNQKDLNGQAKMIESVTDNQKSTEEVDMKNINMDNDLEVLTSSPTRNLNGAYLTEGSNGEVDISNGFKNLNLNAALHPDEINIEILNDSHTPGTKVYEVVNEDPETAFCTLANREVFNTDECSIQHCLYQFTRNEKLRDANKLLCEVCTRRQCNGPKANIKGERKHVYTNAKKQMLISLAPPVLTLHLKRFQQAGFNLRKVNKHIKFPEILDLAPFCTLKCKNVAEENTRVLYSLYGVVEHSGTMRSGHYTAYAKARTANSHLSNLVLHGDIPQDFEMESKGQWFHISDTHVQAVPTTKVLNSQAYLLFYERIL
Chain of Ubiquitin carboxyl-terminal hydrolase 8 (P40818 whole entry): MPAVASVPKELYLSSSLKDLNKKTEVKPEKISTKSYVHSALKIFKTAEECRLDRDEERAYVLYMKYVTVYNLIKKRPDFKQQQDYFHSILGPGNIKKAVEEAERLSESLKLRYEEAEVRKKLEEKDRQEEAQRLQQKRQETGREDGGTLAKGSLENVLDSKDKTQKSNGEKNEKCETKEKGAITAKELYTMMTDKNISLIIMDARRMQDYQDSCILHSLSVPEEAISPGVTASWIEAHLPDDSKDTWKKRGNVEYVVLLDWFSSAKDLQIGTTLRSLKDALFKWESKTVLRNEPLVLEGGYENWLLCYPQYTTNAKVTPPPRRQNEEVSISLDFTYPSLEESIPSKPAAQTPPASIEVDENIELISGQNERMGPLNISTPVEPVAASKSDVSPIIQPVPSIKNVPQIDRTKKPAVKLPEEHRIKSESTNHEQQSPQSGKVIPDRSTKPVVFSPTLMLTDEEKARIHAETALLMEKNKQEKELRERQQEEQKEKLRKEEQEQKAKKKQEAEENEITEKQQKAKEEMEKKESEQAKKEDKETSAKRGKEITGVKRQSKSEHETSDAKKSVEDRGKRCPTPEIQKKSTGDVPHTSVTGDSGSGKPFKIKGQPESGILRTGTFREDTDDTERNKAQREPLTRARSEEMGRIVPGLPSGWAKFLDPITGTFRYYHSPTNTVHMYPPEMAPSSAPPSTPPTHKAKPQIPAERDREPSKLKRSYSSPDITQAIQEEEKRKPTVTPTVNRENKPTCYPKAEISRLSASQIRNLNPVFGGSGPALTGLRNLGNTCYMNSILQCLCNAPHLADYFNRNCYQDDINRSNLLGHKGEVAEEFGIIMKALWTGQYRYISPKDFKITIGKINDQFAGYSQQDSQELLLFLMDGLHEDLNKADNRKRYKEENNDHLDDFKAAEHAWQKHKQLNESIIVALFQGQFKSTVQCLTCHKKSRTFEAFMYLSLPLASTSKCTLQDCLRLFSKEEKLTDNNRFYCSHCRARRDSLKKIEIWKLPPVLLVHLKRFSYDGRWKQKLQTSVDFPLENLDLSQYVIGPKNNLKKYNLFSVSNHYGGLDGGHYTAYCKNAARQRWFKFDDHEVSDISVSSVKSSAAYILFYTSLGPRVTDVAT
Chain of Deubiquitinating protein VCPIP1 (Q96JH7 whole entry, the tested form may be a part): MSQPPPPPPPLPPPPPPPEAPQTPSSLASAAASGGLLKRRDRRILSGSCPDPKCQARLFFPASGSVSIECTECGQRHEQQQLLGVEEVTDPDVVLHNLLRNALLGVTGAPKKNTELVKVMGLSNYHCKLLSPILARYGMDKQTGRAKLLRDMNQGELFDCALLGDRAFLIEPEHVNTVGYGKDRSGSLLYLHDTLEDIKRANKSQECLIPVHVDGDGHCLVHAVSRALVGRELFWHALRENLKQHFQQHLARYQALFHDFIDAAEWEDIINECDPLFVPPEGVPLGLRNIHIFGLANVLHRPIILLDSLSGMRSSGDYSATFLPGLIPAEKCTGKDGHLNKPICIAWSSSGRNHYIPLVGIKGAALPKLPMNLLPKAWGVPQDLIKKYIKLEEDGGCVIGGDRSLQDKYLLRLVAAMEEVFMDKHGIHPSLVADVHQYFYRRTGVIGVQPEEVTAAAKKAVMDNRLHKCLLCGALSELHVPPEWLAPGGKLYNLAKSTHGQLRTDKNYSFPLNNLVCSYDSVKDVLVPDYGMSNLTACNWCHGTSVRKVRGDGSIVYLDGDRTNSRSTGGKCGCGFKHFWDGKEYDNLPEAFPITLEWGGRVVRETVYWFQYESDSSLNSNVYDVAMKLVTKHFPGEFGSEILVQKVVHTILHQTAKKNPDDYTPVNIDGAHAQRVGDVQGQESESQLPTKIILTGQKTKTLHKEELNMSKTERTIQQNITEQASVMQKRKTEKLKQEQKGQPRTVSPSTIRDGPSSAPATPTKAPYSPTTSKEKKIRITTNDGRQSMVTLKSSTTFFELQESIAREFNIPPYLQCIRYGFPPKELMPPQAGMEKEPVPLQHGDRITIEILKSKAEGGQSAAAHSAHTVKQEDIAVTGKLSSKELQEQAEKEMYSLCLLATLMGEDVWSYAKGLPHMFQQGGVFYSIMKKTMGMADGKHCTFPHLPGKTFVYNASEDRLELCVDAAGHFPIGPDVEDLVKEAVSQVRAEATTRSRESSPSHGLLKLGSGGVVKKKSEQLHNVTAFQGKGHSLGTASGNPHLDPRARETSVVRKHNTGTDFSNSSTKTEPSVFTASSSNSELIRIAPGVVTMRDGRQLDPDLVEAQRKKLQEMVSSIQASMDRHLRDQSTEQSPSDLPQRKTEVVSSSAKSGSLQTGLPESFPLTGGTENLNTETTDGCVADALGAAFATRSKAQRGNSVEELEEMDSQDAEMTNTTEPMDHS
Chain of OTU domain-containing protein 1 (Q5VV17 whole entry, the tested form may be a part): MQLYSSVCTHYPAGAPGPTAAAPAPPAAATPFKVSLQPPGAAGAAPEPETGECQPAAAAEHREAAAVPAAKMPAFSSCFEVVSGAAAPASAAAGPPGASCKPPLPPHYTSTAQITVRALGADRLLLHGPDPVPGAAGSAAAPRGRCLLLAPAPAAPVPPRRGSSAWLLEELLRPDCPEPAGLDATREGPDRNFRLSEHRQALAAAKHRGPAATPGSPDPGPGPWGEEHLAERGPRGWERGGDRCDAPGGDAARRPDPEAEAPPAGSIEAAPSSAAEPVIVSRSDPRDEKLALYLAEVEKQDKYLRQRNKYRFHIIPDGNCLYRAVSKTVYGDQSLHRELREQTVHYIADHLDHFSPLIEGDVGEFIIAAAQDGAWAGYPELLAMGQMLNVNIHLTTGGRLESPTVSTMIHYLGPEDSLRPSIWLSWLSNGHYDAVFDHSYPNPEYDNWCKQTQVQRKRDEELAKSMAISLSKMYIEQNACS
Chain of Ubiquitin carboxyl-terminal hydrolase 30 (Q70CQ3 whole entry, the tested form may be a part): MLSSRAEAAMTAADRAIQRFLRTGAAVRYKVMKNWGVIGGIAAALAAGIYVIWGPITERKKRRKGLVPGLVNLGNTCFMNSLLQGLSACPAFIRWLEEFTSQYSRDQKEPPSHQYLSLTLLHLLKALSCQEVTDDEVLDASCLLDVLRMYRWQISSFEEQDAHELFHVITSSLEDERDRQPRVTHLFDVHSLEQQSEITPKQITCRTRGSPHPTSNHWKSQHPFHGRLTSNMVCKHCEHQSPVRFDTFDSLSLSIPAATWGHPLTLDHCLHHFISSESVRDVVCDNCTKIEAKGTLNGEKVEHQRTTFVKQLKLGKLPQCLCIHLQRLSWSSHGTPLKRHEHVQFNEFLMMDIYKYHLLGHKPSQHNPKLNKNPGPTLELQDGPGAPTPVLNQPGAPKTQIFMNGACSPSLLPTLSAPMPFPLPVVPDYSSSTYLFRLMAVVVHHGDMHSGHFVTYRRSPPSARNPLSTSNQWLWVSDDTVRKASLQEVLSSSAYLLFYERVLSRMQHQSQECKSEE
Chain of OTU domain-containing protein 3 (Q5T2D3 whole entry, the tested form may be a part): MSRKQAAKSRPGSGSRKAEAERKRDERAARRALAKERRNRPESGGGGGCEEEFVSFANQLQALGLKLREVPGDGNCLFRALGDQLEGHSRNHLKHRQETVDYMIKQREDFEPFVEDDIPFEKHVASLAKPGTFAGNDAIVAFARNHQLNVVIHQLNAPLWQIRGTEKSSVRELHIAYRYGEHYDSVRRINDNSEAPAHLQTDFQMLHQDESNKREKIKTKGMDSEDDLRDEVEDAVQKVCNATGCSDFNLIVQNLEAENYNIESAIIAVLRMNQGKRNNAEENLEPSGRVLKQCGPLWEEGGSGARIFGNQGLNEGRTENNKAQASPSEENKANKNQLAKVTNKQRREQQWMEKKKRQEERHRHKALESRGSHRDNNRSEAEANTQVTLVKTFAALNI

Cc1cc(Cl)cc(-c2ccnc3cc(CN4C(=O)C5C(C4=O)C5(C)C)sc23)c1O[C@@H]1CCNC[C@@H]1C (stereo not given in full)
1.83 mL/min/kg: clearance [8]
> 10 µM: IC50 [1] | IC50 [3] | IC50 [4] | IC50 [5] | IC50 [6] | IC50 [7] | IC50 [9] | IC50 [10]
3.4 µM: CC50 at 120 h [2]
